The values below come from US8466107B2, “Fibrin-binding peptides and conjugates thereof” (Bracco Imaging SpA, priority 2006, dated 2013).

Numbered stars: 1 amine (or outer) side, 2 acyl side, 3 side chain; on linkers, the order of the positions; unused ones are H or OH. Bridge positions count the residues as written; N and C are the ends. Side chains are listed from the residue outwards. * marks the point of attachment. DPPE = CCCCCCCCCCCCCCCC(=O)OC[C@H](COP(=O)(O)OCCN*)OC(=O)CCCCCCCCCCCCCCC; Tuda = 3,6,9-trioxaundecane-1,11-dioyl, O=C(COCCOCCOCC(=O)[*:3])[*:2]; AEEA = NCCOCCOCC(=O)O

For test [1], the system named is neuroblastoma (Neuro-2a) tumor. Description: In vivo MRI test of fibrin imaging in neuroblastoma tumor mouse model. To be noted: mice with neuroblastoma tumor; 25 μmol/kg iv.; T1 weighted MRI at 2T, 4 h post injection. The text has this: Three groups of 5 mice each, inoculated with 2·10^6 neuroblastoma cells with PBS, were formed and tested as follows: • Group a: Reference compound 2, • Group b: Chelate Complex 1 • Group c: ProHance® (see Protocol)
At day-10 post tumor cells inoculation, at least 4 mice per group with similar tumor size (5-10 mm in diameter) were selected for the in vivo MRI tests. After pre-contrast MRI acquisition (T1 and T2 high resolution 2D spin-echo and 3D gradient echo images), the test compounds were administered (25 μmol/kg iv.) and MRI was performed at 4 h and 24 h post injection. Maximum signal intensity was measured in the entire tumor area and in each post contrast image covering the whole tumor and the signal was compared to the pre-contrast images. At the end of MRI exams, all animals were sacrificed and the tumor, blood, liver, kidneys and femoral bone were removed and prepared for Gd assay by ICP-AES. […]
The mean signal intensity was measured within a region of interest (ROI) including the entire tumor, drawn by an operator on each MR image using dedicated software (MR Research Systems Ltd, Surrey UK). Signal intensity enhancement (Enh %) was determined as: Enh%=100*(SIx(t)−SI0)/SI0 […]

Test [2] has as its target T1, fibrin (Homo sapiens, UniProt P02671+P02675+P02679).
T1 sequence (P02671 36-629 limits assumed): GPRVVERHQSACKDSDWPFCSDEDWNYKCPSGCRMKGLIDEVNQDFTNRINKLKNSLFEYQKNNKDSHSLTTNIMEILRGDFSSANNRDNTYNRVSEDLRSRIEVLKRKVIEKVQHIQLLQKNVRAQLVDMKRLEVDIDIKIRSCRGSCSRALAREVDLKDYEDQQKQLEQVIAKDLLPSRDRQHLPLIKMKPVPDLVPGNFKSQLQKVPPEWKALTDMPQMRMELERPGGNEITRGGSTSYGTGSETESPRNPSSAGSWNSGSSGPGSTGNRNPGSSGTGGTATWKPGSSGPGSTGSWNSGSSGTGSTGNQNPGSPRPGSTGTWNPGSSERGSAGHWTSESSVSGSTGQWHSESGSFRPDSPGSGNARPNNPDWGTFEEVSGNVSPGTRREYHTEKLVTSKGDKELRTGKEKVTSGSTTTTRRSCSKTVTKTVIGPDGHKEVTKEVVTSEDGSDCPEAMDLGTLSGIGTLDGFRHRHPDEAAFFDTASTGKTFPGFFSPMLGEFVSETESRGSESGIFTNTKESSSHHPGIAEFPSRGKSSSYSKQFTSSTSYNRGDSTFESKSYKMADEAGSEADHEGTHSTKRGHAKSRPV
T1 sequence (P02675 45-491 limits assumed): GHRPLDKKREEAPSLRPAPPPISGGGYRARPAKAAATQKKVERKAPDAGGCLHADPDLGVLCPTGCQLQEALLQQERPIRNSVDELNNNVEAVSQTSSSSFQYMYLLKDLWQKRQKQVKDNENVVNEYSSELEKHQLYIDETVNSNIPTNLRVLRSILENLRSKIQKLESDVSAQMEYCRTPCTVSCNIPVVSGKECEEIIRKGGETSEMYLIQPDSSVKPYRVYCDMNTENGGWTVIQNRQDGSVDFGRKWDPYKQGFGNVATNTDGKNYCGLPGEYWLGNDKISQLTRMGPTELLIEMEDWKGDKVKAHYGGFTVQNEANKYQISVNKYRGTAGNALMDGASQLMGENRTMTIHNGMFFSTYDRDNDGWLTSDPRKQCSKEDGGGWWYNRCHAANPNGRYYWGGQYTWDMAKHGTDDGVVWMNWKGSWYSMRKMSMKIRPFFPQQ
T1 sequence (P02679 27-437 isoform P02679-2 limits assumed): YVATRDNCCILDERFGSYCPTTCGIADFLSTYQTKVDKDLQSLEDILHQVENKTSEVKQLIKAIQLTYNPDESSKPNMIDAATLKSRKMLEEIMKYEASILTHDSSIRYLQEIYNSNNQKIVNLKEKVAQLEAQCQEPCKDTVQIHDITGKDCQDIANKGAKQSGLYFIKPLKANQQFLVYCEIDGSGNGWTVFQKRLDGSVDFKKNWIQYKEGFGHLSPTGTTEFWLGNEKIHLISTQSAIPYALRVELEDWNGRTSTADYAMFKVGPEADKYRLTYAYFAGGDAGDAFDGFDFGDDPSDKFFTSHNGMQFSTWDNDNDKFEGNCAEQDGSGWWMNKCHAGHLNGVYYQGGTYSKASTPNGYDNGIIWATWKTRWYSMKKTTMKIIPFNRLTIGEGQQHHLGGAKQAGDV
Description: Dynamic binding test of targeted microvesicles on fibrin-coated coverslips in a parallel-plate flow chamber. To be noted: microvesicles with DSPC/DSPA envelope, 0.26 μmoles lipopeptide (Examples 20E, 20G, 20H); shear rate about 114 s^-1, 10 min, 50% human plasma. The protocol: Glass coverslips (40 mm in diameter, Bioptechs Inc., Butler, Pa., USA) were coated with fibrin according the following methodology.
Five mL of a solution of BSA 1% w/v in PBS pH 7.4 were added into a 60 mm Petri Dish containing one coverslip, and incubated at 37° C. for 15 min. Then the coverslip was washed three times with 5 ml of Tween 80/PBS (0.1%, v:v). Twenty five μL of human thrombin solution at 5 U/mL were added per mL of human fibrinogen solution (0.5 mg/mL in 50 mM sodium phosphate, NaCl 280 mM, pH 7.4) and delicately mixed. Five mL of this solution were immediately distributed in each Petri dish. The coverslips were incubated for one hour at 37° C. and then dried overnight at 45° C.
Binding studies of targeted microvesicles were carried out using a parallel-plate flow chamber (FCS2, Bioptech Inc., Butler, Pa., USA) with a chamber gasket of 0.25 mm in thickness, with a customized adapter for upside-down chamber inversion. The coated coverslip was inserted as a plate of the flow chamber. Gas-filled Microvesicles (5×10^6 bubbles/mL in 50% human plasma in PBS) were drawn through the flow chamber using an adjustable infusion pump (Auto Syringe® AS50 Infusion Pump, Baxter, Deerfield, Ill., USA) with a 60 mL syringe (Terumo). The pump flow rate was adjusted to 1 mL/min to obtain the desired shear rate of about 114 s^−1. After 10 minutes, the flow was stopped and pictures were taken randomly on different positions on the coverslip (on surfaces of about 0.025 mm^2) using a 40× objective and a CCD monochrome camera (F-View II, Soft Imaging Systems, Germany) connected to an inverted Olympus IX 50 microscope. The number of microvesicles on each picture was determined, averaged with respect to the total number of pictures and the obtained value was then divided by ten (to obtain the “slope”, i.e. the average amount of bound microvesicles per minute).
For each preparation of Examples 17-20, the binding assay was repeated four times thus obtaining an average value of the slope. The slope represents the microvesicle binding rate on the target substrate. […] A higher slope indicates a better capacity of microvesicles to bind to the target under flow conditions.

Consider `CC(O)CN1CCN(CC(=O)[O-])CCN(CC(=O)[O-])CCN(CC(=O)[O-])CC1.[Gd+3]` (centres unmarked) [ProHance®, reference compound], for which the tumor signal enhancement entry in test [1] is given as “no signal enhancement was observed inside the tumors”. “Seq000-PL2: comparative lipopeptide prepared from Seq000(Adoa-Adoa) and DPPE (Ac-WQPCPWESWTFCWDPGGGK([AEEA-AEEA-Tuda-DPPE])-NH2; disulfide 4-12) [reference compound]” returned a Slope in test [2] of 4.6.
